Laboratory results taken from patent USRE48335E1, “Polymyxin derivatives as antimicrobial compounds” (priority 2014, dated 2020).
≈ marks a conversion by molar mass, not a printed value. Positions of bridges follow the written chain, without caps; N, C: chain ends. Non-standard residues stand in square brackets, D forms with d. Residues, ends and D or L forms follow the SMILES beside them. *: point of attachment. Benzoyl(4-CF3) = O=C(c1ccc(C(F)(F)F)cc1)*; X7 = O=C(c1cc(F)cc(C(F)(F)F)c1)*; X8 = O=C(c1ccc(C(F)(F)F)cc1Cl)*; Nonanoyl = CCCCCCCCC(=O)*; Octanoyl = CCCCCCCC(=O)*; X5 = Cc1cc(C(=O)*)ccc1Cl; Dab = NCC[C@H](N)C(=O)O; Abu = CC[C@H](N)C(=O)O; Dap = NC[C@H](N)C(=O)O

Assays:
Acinetobacter baumannii = tested on: Acinetobacter baumannii
In short: (§1)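 Lipopeptides, as trifluoroacetate salts, tested for MIC in CAMHB by CLSI broth microdilution, with polymyxin B (sulphate) as comparator.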

Enterobacter cloacae = tested on: Enterobacter cloacae
In short: as §1

Klebsiella pneumoniae = tested on: Klebsiella pneumoniae
In short: as §1

Pseudomonas aeruginosa = tested on: Pseudomonas aeruginosa
In short: as §1

A. baumannii ATCC 19606 = assay: In vivo efficacy in mouse blood infection model (neutropenic Swiss mice); settings: compound, free base 4 mg/kg intravenously 2 h after inoculation, blood at 4 h
In short: (§2)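 Activity expressed as Δlog10 CFU/mL blood, treated minus saline control, 4 h after a single 4 mg/kg (free base) i.v. dose given 2 h post-infection. Bloodstream infection from i.v. early log-phase inoculum in Swiss mice made neutropenic by i.p. cyclophosphamide on days −4 (150 mg/kg) and −1 (100 mg/kg).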

[1] = tested on: K. pneumoniae FADDI-KP032; assay: as above; settings: compound, free base 4 mg/kg intravenously 2 h after inoculation, blood at 4 h
In short: as §2

P. aeruginosa ATCC 27853 = assay: as above; settings: compound, free base 4 mg/kg intravenously 2 h after inoculation, blood at 4 h
In short: as §2

SMILES	MIC (Acinetobacter baumannii) [µg/mL]	Minimum inhibitory concentration, Ab A ATCC 17978 (Acinetobacter baumannii) [µg/mL]	Minimum inhibitory concentration, Ab ATCC 19606 (Acinetobacter baumannii) [µg/mL]	Minimum inhibitory concentration, Ab FADDI-AB034 (Acinetobacter baumannii) [µg/mL]	Minimum inhibitory concentration, Ec FADDI-EC001 (Enterobacter cloacae) [µg/mL]	Minimum inhibitory concentration, Ec FADDI-EC003 (Enterobacter cloacae) [µg/mL]	Minimum inhibitory concentration, Ec FADDI-EC006 (Enterobacter cloacae) [µg/mL]	MIC (Klebsiella pneumoniae) [µg/mL]	MIC (Pseudomonas aeruginosa) [µg/mL]	Minimum inhibitory concentration, Pa ATCC 27853 (Pseudomonas aeruginosa) [µg/mL]	Minimum inhibitory concentration, Pa FADDI-PA022 (Pseudomonas aeruginosa) [µg/mL]	Minimum inhibitory concentration, Pa FADDI-PA025 (Pseudomonas aeruginosa) [µg/mL]	Δ log (Treated-Control at 4 h) (A. baumannii ATCC 19606) [log10 CFU/mL]	Δ log (Treated-Control at 4 h) [1] [log10 CFU/mL]	Δ log (Treated-Control at 4 h) (P. aeruginosa ATCC 27853) [log10 CFU/mL]
CCCCCCCC(=O)N[C@@H](CCN)C(=O)N[C@H](C(=O)N[C@@H](CN)C(=O)N[C@H]1CCNC(=O)[C@H]([C@@H](C)O)NC(=O)[C@H](CCN)NC(=O)[C@H](CCN)NC(=O)[C@H](C)NC(=O)[C@@H](CC(C)C)NC(=O)[C@H](CCN)NC1=O)[C@@H](C)O [Compound 35] (Octanoyl-[Dab]T[Dap][Dab][Dab][dL]A[Dab][Dab]T; lactam 4-C)	0.5 (≈ 0.455 µM)	0.5 (≈ 0.455 µM)	0.5 (≈ 0.455 µM)	0.25 (≈ 0.227 µM)	<0.125	0.25 (≈ 0.227 µM)	<0.125	<0.125	0.5 (≈ 0.455 µM)	0.5 (≈ 0.455 µM)	0.5 (≈ 0.455 µM)	16 (≈ 14.6 µM)	−1.60	−3.12	−3.36
CCCCCCCC(=O)N[C@@H](CCN)C(=O)N[C@H](C(=O)N[C@@H](CN)C(=O)N[C@H]1CCNC(=O)[C@H]([C@@H](C)O)NC(=O)[C@H](CCN)NC(=O)[C@H](CCN)NC(=O)[C@H](CC)NC(=O)[C@@H](CC(C)C)NC(=O)[C@H](CCN)NC1=O)[C@@H](C)O [Compound 46] (Octanoyl-[Dab]T[Dap][Dab][Dab][dL][Abu][Dab][Dab]T; lactam 4-C)	0.25 (≈ 0.225 µM)	0.25 (≈ 0.225 µM)	0.25 (≈ 0.225 µM)	0.25 (≈ 0.225 µM)	<0.125	0.25 (≈ 0.225 µM)	<0.125	<0.125	0.5 (≈ 0.449 µM)	0.5 (≈ 0.449 µM)	0.5 (≈ 0.449 µM)	2 (≈ 1.8 µM)	−1.56	−2.93	−2.53
CCCCCCCCC(=O)N[C@@H](CCN)C(=O)N[C@H](C(=O)N[C@@H](CN)C(=O)N[C@H]1CCNC(=O)[C@H]([C@@H](C)O)NC(=O)[C@H](CCN)NC(=O)[C@H](CCN)NC(=O)[C@H]([C@@H](C)O)NC(=O)[C@@H](CC(C)C)NC(=O)[C@H](CCN)NC1=O)[C@@H](C)O [Compound 58] (Nonanoyl-[Dab]T[Dap][Dab][Dab][dL]T[Dab][Dab]T; lactam 4-C)	0.25 (≈ 0.219 µM)	0.5 (≈ 0.437 µM)	0.25 (≈ 0.219 µM)	1 (≈ 0.875 µM)	0.25 (≈ 0.219 µM)	0.25 (≈ 0.219 µM)	0.5 (≈ 0.437 µM)	0.25 (≈ 0.219 µM)	0.5 (≈ 0.437 µM)	0.5 (≈ 0.437 µM)	2 (≈ 1.75 µM)	2 (≈ 1.75 µM)	−2.15	−3.21	−3.00
CC[C@@H]1NC(=O)[C@@H](CC(C)C)NC(=O)[C@H](CCN)NC(=O)[C@@H](NC(=O)[C@H](CN)NC(=O)[C@@H](NC(=O)[C@H](CCN)NC(=O)c2ccc(C(F)(F)F)cc2)[C@@H](C)O)CCNC(=O)[C@H]([C@@H](C)O)NC(=O)[C@H](CCN)NC(=O)[C@H](CCN)NC1=O [Compound 74] ({Benzoyl(4-CF3)}-[Dab]T[Dap][Dab][Dab][dL][Abu][Dab][Dab]T; lactam 4-C)	0.5 (≈ 0.431 µM)	0.5 (≈ 0.431 µM)	0.5 (≈ 0.431 µM)	1 (≈ 0.863 µM)	<0.125	0.25 (≈ 0.216 µM)	2 (≈ 1.73 µM)	0.25 (≈ 0.216 µM)	0.5 (≈ 0.431 µM)	0.5 (≈ 0.431 µM)	0.5 (≈ 0.431 µM)	2 (≈ 1.73 µM)	−2.34	−2.94	−3.10
CC[C@@H]1NC(=O)[C@@H](CC(C)C)NC(=O)[C@H](CCN)NC(=O)[C@@H](NC(=O)[C@H](CN)NC(=O)[C@@H](NC(=O)[C@H](CCN)NC(=O)c2ccc(Cl)c(C)c2)[C@@H](C)O)CCNC(=O)[C@H]([C@@H](C)O)NC(=O)[C@H](CCN)NC(=O)[C@H](CCN)NC1=O [Compound 104] (X5-[Dab]T[Dap][Dab][Dab][dL][Abu][Dab][Dab]T; lactam 4-C)	1 (≈ 0.877 µM)	0.5 (≈ 0.439 µM)	1 (≈ 0.877 µM)	0.25 (≈ 0.219 µM)	0.5 (≈ 0.439 µM)	0.25 (≈ 0.219 µM)	0.5 (≈ 0.439 µM)	1 (≈ 0.877 µM)	0.5 (≈ 0.439 µM)	0.5 (≈ 0.439 µM)	0.5 (≈ 0.439 µM)	2 (≈ 1.75 µM)	−1.35	−3.23	−3.08
CC[C@@H]1NC(=O)[C@@H](CC(C)C)NC(=O)[C@H](CCN)NC(=O)[C@@H](NC(=O)[C@H](CN)NC(=O)[C@@H](NC(=O)[C@H](CCN)NC(=O)c2cc(F)cc(C(F)(F)F)c2)[C@@H](C)O)CCNC(=O)[C@H]([C@@H](C)O)NC(=O)[C@H](CCN)NC(=O)[C@H](CCN)NC1=O [Compound 108] (X7-[Dab]T[Dap][Dab][Dab][dL][Abu][Dab][Dab]T; lactam 4-C)	0.5 (≈ 0.425 µM)	0.5 (≈ 0.425 µM)	0.5 (≈ 0.425 µM)	0.5 (≈ 0.425 µM)	1 (≈ 0.849 µM)	0.5 (≈ 0.425 µM)	0.5 (≈ 0.425 µM)	0.25 (≈ 0.212 µM)	0.5 (≈ 0.425 µM)	0.5 (≈ 0.425 µM)	0.5 (≈ 0.425 µM)	2 (≈ 1.7 µM)	−1.82	−2.84	−2.32
CC[C@@H]1NC(=O)[C@@H](CC(C)C)NC(=O)[C@H](CCN)NC(=O)[C@@H](NC(=O)[C@H](CN)NC(=O)[C@@H](NC(=O)[C@H](CCN)NC(=O)c2ccc(C(F)(F)F)cc2Cl)[C@@H](C)O)CCNC(=O)[C@H]([C@@H](C)O)NC(=O)[C@H](CCN)NC(=O)[C@H](CCN)NC1=O [Compound 109] (X8-[Dab]T[Dap][Dab][Dab][dL][Abu][Dab][Dab]T; lactam 4-C)	0.25 (≈ 0.209 µM)	1 (≈ 0.838 µM)	0.25 (≈ 0.209 µM)	1 (≈ 0.838 µM)	1 (≈ 0.838 µM)	<0.125	0.25 (≈ 0.209 µM)	0.25 (≈ 0.209 µM)	0.5 (≈ 0.419 µM)	0.5 (≈ 0.419 µM)	0.5 (≈ 0.419 µM)	2 (≈ 1.68 µM)	−1.54	−3.47	−2.68
